9 compounds from patent US20230295197A1, “STAT5 and STAT6 Degraders and Uses Thereof” (REGENTS OF THE UNIVERSITY OF MICHICAN, priority 2022, published 2023) can be followed below.

The structures appear in SMILES notation. Where two headings read alike, the source gives them in different places. *1 amine or outer side, *2 acyl side, *3 side chain or, on linkers, in order; H or OH if unused. Where a SMILES comes first, the peptide text is derived from it. [ ]: non-standard residue; d: D form. The star is where a group is joined. Benzothienyl2CO(5-CF2PO3H2) = O=C(c1cc2cc(C(F)(F)P(=O)(O)O)ccc2s1)*; βAla(N-(4-Br-phenyl)) = O=C(CCN(c1ccc(Br)cc1)[*:1])[*:2]; NHBn(4-(4-Me-thiazol-5-yl)) = Cc1ncsc1-c1ccc(CN*)cc1; NH(CH2)9CO = O=C(CCCCCCCCCN[*:1])[*:2]; Hyp = O=C(O)[C@@H]1C[C@@H](O)CN1; Tle = CC(C)(C)[C@H](N)C(=O)O

The assay deals with T1, STAT6 (Homo sapiens, UniProt P42226).
T1 construct: endogenous in cells; host or cells: MOLM-16, KU-812, SKNO1, MB231, L1236
T1 sequence (P42226 1-847): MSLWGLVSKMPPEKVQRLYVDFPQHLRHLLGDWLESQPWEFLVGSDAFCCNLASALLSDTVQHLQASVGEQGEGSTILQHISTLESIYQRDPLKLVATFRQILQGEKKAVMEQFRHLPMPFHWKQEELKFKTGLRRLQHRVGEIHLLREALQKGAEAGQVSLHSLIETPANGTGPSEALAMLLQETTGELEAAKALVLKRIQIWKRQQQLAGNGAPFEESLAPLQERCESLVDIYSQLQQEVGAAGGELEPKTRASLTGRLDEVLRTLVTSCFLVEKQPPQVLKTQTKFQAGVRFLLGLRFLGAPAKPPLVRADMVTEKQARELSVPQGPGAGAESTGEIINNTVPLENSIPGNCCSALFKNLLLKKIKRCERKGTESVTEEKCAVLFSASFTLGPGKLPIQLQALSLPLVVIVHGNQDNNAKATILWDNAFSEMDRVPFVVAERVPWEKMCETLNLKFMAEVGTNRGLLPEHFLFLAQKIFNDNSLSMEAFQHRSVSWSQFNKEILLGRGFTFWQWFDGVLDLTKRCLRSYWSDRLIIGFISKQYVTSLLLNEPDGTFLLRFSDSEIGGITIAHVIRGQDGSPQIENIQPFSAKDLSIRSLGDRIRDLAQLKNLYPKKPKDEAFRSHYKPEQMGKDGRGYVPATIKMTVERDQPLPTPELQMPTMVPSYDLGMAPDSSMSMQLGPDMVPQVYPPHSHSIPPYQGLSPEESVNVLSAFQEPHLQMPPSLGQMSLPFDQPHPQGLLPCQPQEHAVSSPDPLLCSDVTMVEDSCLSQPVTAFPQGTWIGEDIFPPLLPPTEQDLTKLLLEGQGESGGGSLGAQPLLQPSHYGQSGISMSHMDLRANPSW
In words: Immunoblotting (Western blot) analysis of STAT6 degradation efficiency of degraders in treated cells. It counts as cell-based. The method in brief:
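About 1 million cells per point, grown in 10% FBS medium at 37 °C/5% CO2, were exposed to compound at the indicated concentrations and times, then lysed in RIPA buffer with protease and phosphatase inhibitors. Equal protein (20-40 μg) was resolved by SDS-PAGE, blotted to PVDF, and probed with anti-STAT5, anti-STAT6 and anti-GAPDH antibodies.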

[1] abbreviates: MOLM-16 cells, class symbols, read-out: DC50 S6 MOLM-16.
Setting [2] is: L1236 cells, read-out: DC50 S6 L1236.

For `CC(C)(C)[C@H](NC(=O)c1cc2cc(C(F)(F)P(=O)(O)O)ccc2s1)C(=O)N1C[C@@H](OCC(=O)NCCCCCC#Cc2cccc3c2C(=O)N(C2CCC(=O)NC2=O)C3=O)C[C@H]1C(=O)N1CCO[C@H](c2ccccc2)C1` (stereo partly drawn) [Compound 487, ((2-(((2S)-1-((2S,4S)-4-(2-((7-(2-(2,6-dioxopiperidin-3-yl)-1,3-dioxoisoindolin-4-yl)hept-6-yn-1-yl)amino)-2-oxoethoxy)-2-((R)-2-phenylmorpholine-4-carbonyl)pyrrolidin-1-yl)-3,3-dimethyl-1-oxobutan-2-yl)carbamoyl)benzo[b]thiophen-5-yl)difluoromethyl)phosphonic acid], under setting [1], the DC50 – broadly, the midpoint of the concentration-degradation curve – is over 10 µM. For the compound `Cc1ncsc1-c1ccc([C@H](C)NC(=O)[C@@H]2C[C@@H](O)CN2C(=O)[C@@H](NC(=O)CCCCNC(=O)CC(=O)N2CCN(C(=O)[C@@H](NC(=O)c3cc4cc(C(F)(F)P(=O)(O)O)ccc4s3)C(C)(C)C)[C@H](C(=O)N3CCO[C@H](c4ccccc4)C3)C2)C(C)(C)C)cc1` [Compound 446, (difluoro(2-(((S)-1-((S)-4-(3-((5-(((S)-1-((2S,4R)-4-hydroxy-2-(((S)-1-(4-(4-methylthiazol-5-yl)phenyl)ethyl)carbamoyl)pyrrolidin-1-yl)-3,3-dimethyl-1-oxobutan-2-yl)amino)-5-oxopentyl)amino)-3-oxopropanoyl)-2-((R)-2-phenylmorpholine-4-carbonyl)piperazin-1-yl)-3,3-dimethyl-1-oxobutan-2-yl)carbamoyl)benzo[b]thiophen-5-yl)methyl)phosphonic acid], the DC50 runs as follows: under setting [2], over 10 µM; under setting [1], over 10 µM. For `Cc1ncsc1-c1ccc(CNC(=O)[C@@H]2C[C@@H](O)CN2C(=O)[C@@H](NC(=O)CCCCCCCCCNC(=O)CCN(C(=O)[C@@H]2CCCN2C(=O)[C@@H](NC(=O)c2cc3cc(C(F)(F)P(=O)(O)O)ccc3s2)C(C)(C)C)c2ccc(Br)cc2)C(C)(C)C)cc1` [Compound 396] ({Benzothienyl2CO(5-CF2PO3H2)}-[Tle]P[βAla(N-(4-Br-phenyl))][NH(CH2)9CO][Tle][Hyp]-{NHBn(4-(4-Me-thiazol-5-yl))}), the DC50 (read-out: DC50 S6 MB231, MB231 cells) was over 10 µM.

In the case of `Cc1ncsc1-c1ccc([C@H](C)NC(=O)[C@@H]2C[C@@H](O)CN2C(=O)[C@@H](NC(=O)CCCCNC(=O)CO[C@H]2C[C@@H](C(=O)N3CCO[C@H](c4ccccc4)C3)N(C(=O)[C@@H](NC(=O)c3cc4cc(C(F)(F)P(=O)(O)O)ccc4s3)C(C)(C)C)C2)C(C)(C)C)cc1` [Compound 428, (difluoro(2-(((S)-1-((2S,4S)-4-(2-((5-(((S)-1-((2S,4R)-4-hydroxy-2-(((S)-1-(4-(4-methylthiazol-5-yl)phenyl)ethyl)carbamoyl)pyrrolidin-1-yl)-3,3-dimethyl-1-oxobutan-2-yl)amino)-5-oxopentyl)amino)-2-oxoethoxy)-2-((R)-2-phenylmorpholine-4-carbonyl)pyrrolidin-1-yl)-3,3-dimethyl-1-oxobutan-2-yl)carbamoyl)benzo[b]thiophen-5-yl)methyl)phosphonic acid], the DC50 is over 10 µM under setting [2] and over 10 µM under setting [1]. Consider `CC(C)(C)[C@H](NC(=O)c1cc2cc(C(F)(F)P(=O)(O)O)ccc2s1)C(=O)N1C[C@@H](OCCN2CCC(Nc3cccc4c3CN(C3CCC(=O)NC3=O)C4=O)CC2)C[C@H]1C(=O)N1CCO[C@H](c2ccccc2)C1` (stereo partly drawn) [Compound 605, ((2-(((2S)-1-((2S,4S)-4-(2-(4-((2-(2,6-dioxopiperidin-3-yl)-1-oxoisoindolin-4-yl)amino)piperidin-1-yl)ethoxy)-2-((R)-2-phenylmorpholine-4-carbonyl)pyrrolidin-1-yl)-3,3-dimethyl-1-oxobutan-2-yl)carbamoyl)benzo[b]thiophen-5-yl)difluoromethyl)phosphonic acid], for which, where the note is “MOLM-16 cells, numeric bound, read-out: DC50 S6 MOLM-16”, the 50% degradation concentration (DC50) was over 0.3 µM. As for `CC(C)(C)[C@H](NC(=O)c1cc2cc(C(F)(F)P(=O)(O)O)ccc2s1)C(=O)N1CCN(C(=O)CC(=O)NCCCCCCCCC#Cc2cccc3c2C(=O)N(C2CCC(=O)NC2=O)C3=O)C[C@H]1C(=O)N1CCO[C@H](c2ccccc2)C1` (stereo partly drawn) [Compound 517, ((2-(((2S)-1-((2S)-4-(3-((10-(2-(2,6-dioxopiperidin-3-yl)-1,3-dioxoisoindolin-4-yl)dec-9-yn-1-yl)amino)-3-oxopropanoyl)-2-((R)-2-phenylmorpholine-4-carbonyl)piperazin-1-yl)-3,3-dimethyl-1-oxobutan-2-yl)carbamoyl)benzo[b]thiophen-5-yl)difluoromethyl)phosphonic acid], the DC50 under setting [1] was over 10 µM.

Turning to `Cc1ncsc1-c1ccc([C@H](C)NC(=O)[C@@H]2C[C@@H](O)CN2C(=O)[C@@H](NC(=O)CCCCCCCCCNC(=O)CO[C@H]2C[C@@H](C(=O)N3CCO[C@H](c4ccccc4)C3)N(C(=O)[C@@H](NC(=O)c3cc4cc(C(F)(F)P(=O)(O)O)ccc4s3)C(C)(C)C)C2)C(C)(C)C)cc1` [Compound 433, (difluoro(2-(((S)-1-((2S,4S)-4-(2-((10-(((S)-1-((2S,4R)-4-hydroxy-2-(((S)-1-(4-(4-methylthiazol-5-yl)phenyl)ethyl)carbamoyl)pyrrolidin-1-yl)-3,3-dimethyl-1-oxobutan-2-yl)amino)-10-oxodecyl)amino)-2-oxoethoxy)-2-((R)-2-phenylmorpholine-4-carbonyl)pyrrolidin-1-yl)-3,3-dimethyl-1-oxobutan-2-yl)carbamoyl)benzo[b]thiophen-5-yl)methyl)phosphonic acid], the DC50 by setting is: under setting [2], over 10 µM; under setting [1], over 10 µM. `Cc1ncsc1-c1ccc([C@H](C)NC(=O)[C@@H]2C[C@@H](O)CN2C(=O)[C@@H](NC(=O)CCCCCNC(=O)COc2ccc3c(c2)CN(C(=O)[C@@H](NC(=O)c2cc4cc(C(F)(F)P(=O)(O)O)ccc4s2)C(C)(C)C)[C@H](C(=O)N2CCO[C@H](c4ccccc4)C2)C3)C(C)(C)C)cc1` [Compound 465, (difluoro(2-(((S)-1-((S)-7-(2-((6-(((S)-1-((2S,4R)-4-hydroxy-2-(((S)-1-(4-(4-methylthiazol-5-yl)phenyl)ethyl)carbamoyl)pyrrolidin-1-yl)-3,3-dimethyl-1-oxobutan-2-yl)amino)-6-oxohexyl)amino)-2-oxoethoxy)-3-((R)-2-phenylmorpholine-4-carbonyl)-3,4-dihydroisoquinolin-2(1H)-yl)-3,3-dimethyl-1-oxobutan-2-yl)carbamoyl)benzo[b]thiophen-5-yl)methyl)phosphonic acid]: the DC50 under setting [2] is over 10 µM and the DC50 under setting [1] was over 10 µM. Regarding `O=C1CCC(N2Cc3c(C#CCCCCCC(=O)N4CC[C@H]5CC[C@@H](C(=O)N6CC[C@@H](c7ccccc7)C6)N5C(=O)[C@@H](NC(=O)c5cc6cc(C(F)(F)P(=O)(O)O)ccc6s5)C4)cccc3C2=O)C(=O)N1` (stereo partly drawn) [Compound 563, ((2-(((5S,8S,10aR)-3-(8-(2-(2,6-dioxopiperidin-3-yl)-1-oxoisoindolin-4-yl)oct-7-ynoyl)-6-oxo-8-((S)-3-phenylpyrrolidine-1-carbonyl)decahydropyrrolo[1,2-a][1,5]diazocin-5-yl)carbamoyl)benzo[b]thiophen-5-yl)difluoromethyl)phosphonic acid], the DC50 is over 10 µM under setting [2] and over 10 µM under setting [1].
